Reference: patent US6013802A, “Fluorescent conjugates of metal-chelating nitrogen heterocycles” (Molecular Probes, Inc., priority 1997, dated 2000)

Assay: Fluorescent detection of Cu2+ in seawater (high salt)
Conditions: 1 μM dye in seawater; zero to 10 μM added Cu2+ (CuCl2)
Procedure: The metal-ion indicators of the present invention can be used to detect low levels of target ions in the presence of very high concentrations of other mono- and divalent cations. For example, a solution of a green fluorescent phenanthroline derivative (as described in Example 1) is diluted into freshly collected, unfiltered seawater to give a dye concentration of 1 μM. Using 10 mM EGTA, pH 7.20, 100 mM KCL in 10 mM MOPS as a standard, the fluorescence emission of the indicator solution is scanned from 450 nm to 650 nm in a Perkin Elmer PE-450 fluorimeter with excitation at 488 nm.

fluorescence emission remaining, of original emission intensity, after added Cu^2+: approximately 10%
SMILES: O=C1OC2(c3ccc(O)cc3Oc3cc(O)ccc32)c2ccc(NC(=S)Nc3cc4cccnc4c4ncccc34)cc21
